# Calls of active or inactive are those of the source. No cut-off for these calls is given here.
# How the values were obtained:
# Assay type in all cases: functional
# Oxoeicosanoid receptor 1 [1] = biological target: T1, Oxoeicosanoid receptor 1 (Homo sapiens, UniProt Q8TDS5); test: Antagonist activity at OXE receptor in human neutrophils assessed as 5-oxo-ETE-induced Ca2+ mobilization incubated for 2 mins prior to 5-oxo-ETE addition measured after 1 min by spectrofluorimetric analysis
# Oxoeicosanoid receptor 1 [2] = biological target: T1, Oxoeicosanoid receptor 1; test: Antagonist activity at OXE receptor in human neutrophils assessed as induction of Ca2+ mobilization at 30 uM after 2 mins by spectrofluorimetric analysis
# Oxoeicosanoid receptor 1 [3] = biological target: T1, Oxoeicosanoid receptor 1; test: Antagonist activity at OXE receptor in human neutrophils assessed as 5-oxo-ETE-induced Ca2+ mobilization incubated for 2 mins prior to 5-oxo-ETE addition measured at 30 uM after 1 min by spectrofluorimetric analysis
# Oxoeicosanoid receptor 1 [4] = biological target: T1, Oxoeicosanoid receptor 1; test: Agonist activity at OXE receptor in human neutrophils assessed as 5-oxo-ETE-induced Ca2+ mobilization incubated for 2 mins prior to 5-oxo-ETE addition measured after 1 min by spectrofluorimetric analysis
# Oxoeicosanoid receptor 1 [5] = biological target: T1, Oxoeicosanoid receptor 1; test: Antagonist activity at OXE receptor in human neutrophils assessed as LTB4-induced Ca2+ mobilization incubated for 2 mins prior to 5-oxo-ETE addition measured after 1 min by spectrofluorimetric analysis
# Oxoeicosanoid receptor 1 [6] = biological target: T1, Oxoeicosanoid receptor 1; test: Antagonist activity at OXE receptor in human neutrophils assessed as 5-oxo-ETE-induced Ca2+ mobilization incubated for 2 mins prior to 5-oxo-ETE addition measured at 1 uM after 1 min by spectrofluorimetric analysis
# T1 sequence (Q8TDS5 whole entry): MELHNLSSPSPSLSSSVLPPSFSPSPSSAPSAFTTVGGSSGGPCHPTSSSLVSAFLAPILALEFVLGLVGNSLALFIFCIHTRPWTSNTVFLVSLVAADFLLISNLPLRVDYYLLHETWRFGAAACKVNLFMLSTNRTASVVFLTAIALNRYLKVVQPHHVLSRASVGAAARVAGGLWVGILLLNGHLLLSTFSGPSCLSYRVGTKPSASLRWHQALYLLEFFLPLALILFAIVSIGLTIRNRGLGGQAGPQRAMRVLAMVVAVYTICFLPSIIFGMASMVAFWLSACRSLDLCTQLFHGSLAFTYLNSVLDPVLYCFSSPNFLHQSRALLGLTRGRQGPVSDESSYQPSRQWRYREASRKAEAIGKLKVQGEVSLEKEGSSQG
IC50 (Oxoeicosanoid receptor 1 [1]),Activity (Oxoeicosanoid receptor 1 [4]),SMILES,further results
1.55 µM,–,CCCCCCc1cc2ccccc2n1C(=O)CCCC(=O)O,Activity (Oxoeicosanoid receptor 1 [5]): inactive; Activity (Oxoeicosanoid receptor 1 [6]): Active
20.7 µM,–,CCCCCCc1cn(C(=O)CCCC(=O)O)c2ccccc12,–
11.8 µM,–,CCCCCCc1cccc2ccn(C(=O)CCCC(=O)O)c12,–

# Continued, molecule first:
SMILES,IC50 (Oxoeicosanoid receptor 1 [1]),Activity (Oxoeicosanoid receptor 1 [4]),further results
CCCCCCc1ccc2ccn(C(=O)CCCC(=O)O)c2c1,18 µM,–,–
CCCCCCc1ccc2c(ccn2C(=O)CCCC(=O)O)c1,17.7 µM,–,–
O=C(O)CCCC(=O)n1ccc2ccccc21,> 30 µM,inactive,Activity (Oxoeicosanoid receptor 1 [2]): inactive; Activity (Oxoeicosanoid receptor 1 [3]): inactive
O=C(O)CCCc1cc2ccccc2o1,–,inactive,–
O=C(O)CCCC(=O)/C=C/c1cccc2ccccc12,–,inactive,–
O=C(O)CCCC(=O)/C=C/c1ccccc1,–,inactive,–
